Like-named read-outs stand apart in the source and are kept apart here.
Tests used:
HBV [1] = test: Chou-Talalay combination analysis with Lamivudine against HBV replication; assay type: cell-based, hepatitis B virus; settings: together with Lamivudine; CI <1.0 indicates synergy
From the text: Current nucleos(t)ide analog therapy for HBV has converted hepatitis type B from an implacably progressing illness to a controllable disease. However, patients are only very rarely cured, in part due to the incomplete inhibition of HBV replication. The inventors hypothesized that the novel RNaseH inhibitors would work synergistically with the existing nucleos(t)ide analogs because the two classes of drugs target physically distinct active sites on the viral polymerase protein. […] RNAseH inhibitors from two different chemical classes were employed, compound #1 [2-hydroxyisoquinoline-1,3(2H,4H)-dione], an HID, and #46 (β-thujaplicinol), an α-hydroxytropolone, were tested. Chou-Talaly analysis yields a combination index (CI). CI values <1.0 indicate synergy, CIs of approximately 1.0 indicate additive interactions, and CI values >1.0 indicate antagonism. CI values are calculated at various efficacy levels (EC50, EC75, EC90, and EC95), and a weighted CI value favoring higher efficacy levels is also generated. FIGS. 4A & 4B show the results of four experiments employing compound #1 and three with compound #46. […] Therefore, RNAseH inhibitors act strongly synergistically with an approved nucleos(t)ide analog drug against HBV.

HBV RNAseH = test: Biochemical RNAseH assay with patient-derived variant HBV RNAseH enzymes; parameters: species or system hepatitis B virus; settings: four genotype D patient-derived enzymes; compound at its IC50 (FIGS. 5A & 5B)
Experimental: RNaseH activity was measured using an oligonucleotide-directed RNA cleavage assay as previously described in Hu, et al., Tavis, et al., and Cai, et al. (2013; 2013; and 2014, respectfully). Briefly, 6 μL protein extract was mixed on ice with an internally ^32P-labeled 264 nt RNA derived from the Duck Hepatitis B Virus genome (DRF+ RNA) plus 3 μg oligonucleotide D2507- or its inverse-complement oligonucleotide D2526+ as a negative control. This mixture was incubated with test compounds in 50 mM Tris pH 8.0, 190 mM NaCl, 5 mM MgCl2, 3.5 mM DTT, 0.05% NP40, 6% glycerol, and 1% DMSO at 42° C. for 90 minutes. Cleavage products were resolved by denaturing polyacrylamide gel electrophoresis, detected by autoradiography, and quantified using ImageJ. Non-specific background values were determined from the incorrect oligonucleotide negative control lane and subtracted from all experimental values. IC50 values were then calculated with GraphPad Prism using three-parameter log(inhibitor) vs. response non-linear curve fitting with the curve minimum set to zero to reflect background subtraction.
HBV has 8 genotypes differing in sequence by 8%. Genetic diversity in the RNAseH domain is about 6%, which is easily high enough to modulate viral sensitivity to RNAseH inhibitors. […]

[2] = Mouse liver microsome assay; assay type: in vitro ADME; settings: for ER: extraction ratio; for ER / Non-P450 turn-over / half-life at 1 μM: mouse liver microsomes; for half-life at 1 μM / CLint scaled at 1 μM: 1 μM compound; for half-life at 1 μM: read-out: t ½; for CLint scaled at 1 μM: mouse
Experimental: Microsomal incubations are run at a final P450 concentration of 0.25 μM. […] The mixture is prewarmed for 5 min at 37° C. To initiate the reaction a 12 mM stock of NAPDH (1.2 mM, final concentration) is added to the warmed microsomal mixture and aliquots are removed at 0, 5, 10, 20 and 30 min. […] Samples are vortexed and spun down at 3200 rpm for 5 min. The supernant is transferred to 96-deep well plates and run on LC/MS/MS.

[3] = MTT cytotoxicity assay in HepDES19 cells; assay type: cell-based; settings: human
Experimental: 1.0×10^4 HepDES19 cells per well were seeded in 96-well plates and incubated in DMEM with 10% FBS plus 1% P/S, 1% non-essential amino acids, and 1% glutamine. Compounds were diluted in medium to the indicated concentrations plus 1% DMSO and added to cells 24 hours after plating, with each concentration tested in triplicate. Medium containing the compound was refreshed daily for the next two days. Thiazolyl blue tetrazolium bromide (MTT, Sigma-Aldrich) was added to 0.25 mg/mL, the cultures were incubated for 60 minutes, metabolites were solubilized in acidic isopropanol, and absorbance was read at 570 nm.

HSV-1 = test: Anti-HSV-1 replication assay (virus yield by plaque assay on Vero cells); assay type: cell-based, herpes simplex virus 1 (HSV-1); settings: for HSV-1 Log10 suppression 5 μM / HSV-1 Log10 suppression 50 μM: Vero cells, moi 0.1, 24 h, relative to DMSO control
Experimental: (§1) Vero cells were maintained in Dulbecco's modified Eagle's medium (DMEM) containing 3% newborn calf serum, 3% bovine growth serum, 2 mM L-glutamine and 100 IU/mL penicillin and 0.1 mg/mL streptomycin (P/S). HSV-1 #6 and HSV-2 #1 are de-identified clinical isolates from the Saint Louis University Hospital. Stocks were prepared after a single passage in cell culture and were titered by standard plaque assay (Knipe and Spang, 1982). Wild-type HSV-2 used in FIG. 3 was laboratory strain 333. […] Virus stocks were grown and titered on Vero cells (Morrison and Knipe, 1996).
(§2) Compounds to be screened were diluted in PBS supplemented to contain 2% newborn calf serum and 1% glutamine, and added in 100 μL volume to confluent cell monolayers in 24-well cluster plates. Immediately thereafter HSV-1 and HSV-2, diluted in the supplemented PBS medium, were added to the wells in 50 μl volume such that the final concentration of compound was 50 μM, 5 μM and 1 μM and the multiplicity of infection was 0.1. The plates were incubated at 37° C. for 1 hour and then virus-containing inoculum was removed and the wells were washed once in PBS. Compound, diluted to 50 μM, 5 μM and 1 μM in DMEM supplemented to contain 2% newborn calf serum and 1% each penicillin/streptomycin, was added at 0.5 mL/well. Plates were incubated at 37° C. an additional 23 hours, and then the plates were visually inspected through a phase contrast microscope for cytopathic effect, and for toxic effect. The entire contents of each well were collected by scraping. Samples were frozen at −80° C., and then subsequently thawed, sonicated, and infectious virus titer was determined by standard plaque assay on Vero cell monolayers. Because the compounds were dissolved at 10 mM in 100% DMSO, equivalent dilutions of DMSO were added to additional wells as a control for effects of the diluent. Each experiment was repeated once. EC50 values were determined as above except that serial dilutions of the compound to be tested were prepared starting at 50 μM. The inhibitory values were calculated by non-linear curve-fitting in GraphPad Prism.

HSV-2 = test: Anti-HSV-2 replication assay (virus yield by plaque assay on Vero cells); assay type: cell-based, herpes simplex virus 2 (HSV-2); settings: for HSV-2 Log10 suppression 5 μM / HSV-2 Log10 suppression 50 μM: Vero cells, moi 0.1, 24 h, relative to DMSO control
Experimental: as §1, §2

HBV [4] = test: HBV replication assay in HepDES19 cells; assay type: cell-based, hepatitis B virus; parameters: key to Qualitative HBV replication inhibition assay: **: + DNA suppression <25% and − DNA suppression >60%; *: + DNA suppression <50% of − DNA suppression; settings: for EC50: Hepatitis B virus, HBV replication, HepDES19 cells; for Qualitative HBV replication inhibition assay: plus- vs minus-polarity DNA strand suppression
Experimental: Inhibition of HBV replication was measured in HepDES19 cells as previously described in Cai, et al. (2014). Cells were seeded into 6-well plates and incubated in DMEM/F12, 10% fetal bovine serum (FBS), 1% penicillin/streptomycin (P/S) with 1 μg/mL tetracycline. Tetracycline was withdrawn after 24 hours. The test compound was applied to duplicate wells 48 hours later in medium containing a final DMSO concentration of 1%, and medium containing the compound was refreshed daily for the following two days. Cells were harvested and non-encapsidated nucleic acids were digested with micrococcal nuclease (New England Biolabs). HBV DNA was purified from capsids using QIAamp Cador Pathogen Mini Kit (Qiagen) with proteinase K incubation overnight at 37° C. TaqMan PCR was performed for 40 cycles at an annealing temperature of 60° C. Primers and probe (IDT Inc.) for the plus-polarity strand were: 5′[…]3′ (SEQ ID NO: 1); 5′[…]3′ (SEQ ID NO: 2); 5′/56-FAM/[…]/ZEN/[…]/3IABkFQ (SEQ ID NO: 3). Primers and probe for the minus-polarity strand were: 5′[…]3′ (SEQ ID NO: 4; 5′[…]3′ (SEQ ID NO: 5); 5′/56-FAM/[…]/ZEN/[…]/3IABkFQ (SEQ ID NO: 6).

[5] = tested on: TK-deficient mutant of HSV-2 strain 333, ΔTK-; test: Replication of TK-deficient HSV-2 mutant in Vero cells; assay type: cell-based, herpes simplex virus 2 (HSV-2); settings: 5 μM, 24 h (FIG. 3)
Experimental: Vero cells were maintained in Dulbecco's modified Eagle's medium (DMEM) containing 3% newborn calf serum, 3% bovine growth serum, 2 mM L-glutamine and 100 IU/mL penicillin and 0.1 mg/mL streptomycin (P/S). HSV-1 #6 and HSV-2 #1 are de-identified clinical isolates from the Saint Louis University Hospital. Stocks were prepared after a single passage in cell culture and were titered by standard plaque assay (Knipe and Spang, 1982). Wild-type HSV-2 used in FIG. 3 was laboratory strain 333. The TK-deficient mutant of HSV-2 strain 333, ΔTK-, contains a 180-bp KpnI-KpnI deletion in the UL23 open reading frame that abrogates TK activity (McDermott, et al, 1984). ΔTK—was the generous gift of Jim Smiley. Virus stocks were grown and titered on Vero cells (Morrison and Knipe, 1996).
ACV is a nucleoside analog prodrug that must be phosphorylated by the viral thymidine kinase (TK) for it to become a substrate for the viral DNA polymerase (Elion, et al., 1977). HSV TK-deficient mutants are therefore insensitive to ACV. […] Vero cells were infected with a laboratory strain of HSV-2 and an engineered TK-deficient mutant of the same strain. […] ACV 5 μM inhibited wild-type HSV-2 replication 100-fold, but it had little effect on the TK-mutant (FIG. 3).

in vitro = assay type: cell-based; settings: African green monkey
Experimental: Qualitative assessments of cytotoxicity were done visually by inspecting the cells in the primary screening assays. For the quantitative assays, cells were plated in 96-well plates at 1.0×10^4 per well. The next day the compounds were added at 0.78 to 100 μM in a final concentration of 1% (v/v) DMSO, and the cells were incubated for 24 hours under conditions identical to those employed for the viral replication inhibition assays. Mitochondrial toxicity was measured by incubating the cells with 0.25 mg/mL thiazolyl blue tetrazolium bromide (MTT, SigmaAldrich Chemical Co.), the cultures were incubated for 60 min, metabolites were solubilized in acidic isopropanol, and absorbance was read at 570 nm. CC50 values were calculated by non-linear curve fitting using GraphPad Prism.
A quantitative toxicity measurement was conducted. Toxicity was assessed by measuring release of intracellular proteases into the culture medium due to cellular lysis. Cells were plated in 96-well plates at 1.0×10^4 per well. The next day compound was added in concentrations ranging from 0.78 to 100 μM in a final concentration of 1% (v/v) DMSO. The cells were incubated for 24 hours under conditions identical to those employed for the viral replication inhibition assays, and then […] according to the manufacturer's instructions. […]

Structure (SMILES)	CC50 at 3 days [3]	EC50 (HBV [4])	Qualitative HBV replication inhibition assay (HBV [4])	HSV-1 Log10 suppression 5 μM (HSV-1)	HSV-1 Log10 suppression 50 μM (HSV-1)	HSV-2 Log10 suppression 5 μM (HSV-2)	HSV-2 Log10 suppression 50 μM (HSV-2)	further results
O=C1Cc2ccccc2C(=O)N1O [#1, 2-hydroxyisoquinoline-1,3(2H,4H)-dione]								weighted combination index (CI) (HBV [1]): 0.70±0.1; inhibition of HBV RNAseH (HBV RNAseH): about 50%
Cc1cc(C2CCCCC2)n(O)c(=O)c1 [#41]								ER [2]: 0.16; Non-P450 turn-over [2]: No; half-life at 1 μM [2]: > 2 h; CLint scaled at 1 μM ([2]; microsomes, read-out: CL ‘hep): 14 mL/min/kg; CLint scaled at 1 μM ([2]; microsomes, read-out: CL’int): 17 mL/min/kg
CC(C)=CCc1ccc(=O)c(O)cc1C(C)C [#49]	9 µM							
O=c1cc(NCc2ccccc2)c2cccnc2n1O [#151]	15 µM	4.7 µM	**					suppression of HSV-1 replication in cell culture (HSV-1; 5 μM or less): strongly suppressed; suppression of HSV-2 replication in cell culture (HSV-2; 5 μM or less): strongly suppressed
C/C(=N\c1ccccc1N)c1c(C)cc(=O)n(O)c1O [#208]	15 µM	0.69 µM	**	0.15 log10	2.63 log10	0.11 log10	0.26 log10	ER [2]: <0.1; Non-P450 turn-over [2]: No; half-life at 1 μM [2]: > 2 h; CLint scaled at 1 μM ([2]; liver microsomes, read-out: CL ‘hep): 163 mL/min/kg
Cc1ccc(O)c(=O)c(O)c1 [#210]	71 µM	1.5 µM	**					
Cc1cc(COc2ccc(Oc3ccc(Cl)cc3)cc2)n(O)c(=O)c1 [#211]	30 µM	13 µM	**	0.08 log10	1.6 log10	0.04 log10	1.81 log10	
Nc1nc2c(ncn2COCCO)c(=O)[nH]1 [Acyclovir, acyclovir, reference compound]				3.61 log10	5.39 log10	3.91 log10	5.25 log10	inhibition of TK-mutant HSV-2 [5]: little effect; HSV-1 Log10 suppression 5 μM (HSV-1; listed as acyclovir): 4.22 log10; HSV-2 Log10 suppression 5 μM (HSV-2; listed as acyclovir): 3.6 log10; CC50 at 24 h (in vitro): > 100 µM
NCc1cccc(-c2ccc(Cc3cc(=O)n(O)c4ncccc34)cc2)c1 [Compound 153]	10 µM	4.1 µM	**					
